Assays:
Huh7 cells = assay: Apoptosis/necrosis assay (flow cytometry), Huh7 cells; format: cell-based, human; conditions: 24 hours; SK1-I 10, 20, 40 μM; ozanimod 5, 10, 20 μM; ABC294640 10, 20, 40 μM; vs no-drug control
Experimental: (§1) Apoptosis/necrosis assays evaluating the effect of different concentrations of each of ozanimod, ABC294640 and SK1-I on the four human hepatocellular carcinoma cell lines, Hep G2, Hep 3B, Huh 7 and PLC-PRF5 were also performed.
(§2) The protocol used for the apoptosis assays was: • Plated cells in 6-well plates and incubated at 37° C. overnight. • Prepared concentrations of test compound and control compound DMSO in media. • Ozanimod: 5 μM, 10 μM, and 20 μM. • ABC294640: 10 μM, 20 μM, and 40 μM. • SK1-I: 10 μM, 20 μM, and 40 μM. • Control: 0.2% DMSO. • Aspirated the medium from the 6-well plates and added test compound concentrations in media or 0.2% DMSO control in media. Incubated at 37° C. for 24 hours. • Collected and processed the cells following the flow cytometry protocol of the GFP Certified® Apoptosis/Necrosis detection kit from Enzo Life Sciences, Inc. (product no. ENZ-51002; Farmingdale, N.Y., USA).
(§3) FIGS. 5-16 present graphs plotting the data from these 24-hour apoptosis assays for the different concentrations of compounds and no-drug control for the various cell lines. Channel FL2 picks up the apoptosis signal and channel FL3 picks up the necrosis signal. Data points in Quadrant 3 (Q3) in the graphs corresponds to cells undergoing apoptosis (cells positive for the apoptosis detection reagent of the assay). Data points in Quadrant 2 (Q2) in the graphs corresponds to cells that are positive for the apoptosis detection reagent and positive for the necrosis detection reagent of the assay (indicative of late-stage apoptosis).

PLC-PRF5 cells = assay: Apoptosis/necrosis assay (flow cytometry), PLC-PRF5 cells; format: cell-based, human; conditions: 24 hours; SK1-I 10, 20, 40 μM; ozanimod 5, 10, 20 μM; ABC294640 10, 20, 40 μM; vs no-drug control
Experimental: as §1, §2, §3

Hep 3B cells = assay: Apoptosis/necrosis assay (flow cytometry), Hep 3B cells; format: cell-based, human; conditions: 24 hours; SK1-I 10, 20, 40 μM; ozanimod 10, 20, 40 μM; ABC294640 10, 20, 40 μM; vs no-drug control
Experimental: as §1
as §2, with “[…],” for “concentrations of test compound and control compound DMSO in media. • Ozanimod: 5 μM, 10 μM, and 20 μM. • ABC294640: 10 μM,”
as §3

Hep G2 cells = assay: Apoptosis/necrosis assay (flow cytometry), Hep G2 cells; format: cell-based, human; conditions: 24 hours; SK1-I 10, 20, 40 μM; ozanimod 10, 20, 40 μM; ABC294640 10, 20, 40 μM; vs no-drug control
Experimental: as §1
as §2, with “[…],” for “concentrations of test compound and control compound DMSO in media. • Ozanimod: 5 μM, 10 μM, and 20 μM. • ABC294640: 10 μM,”
as §3

[1] = tested on: Jurkat cells (human T-cell leukemia cell line); assay: Apoptosis assay, Jurkat cells; format: cell-based; conditions: SK1-I 10, 20 μM; ozanimod 5, 10 μM; vs no-drug control
Experimental: as §2
as §3, with “apoptosis). […]” for “apoptosis).”

[2] = tested on: primary human hepatocytes; assay: Apoptosis/necrosis assay, normal primary human hepatocytes; format: cell-based; conditions: 24 hours; SK1-I 10, 20, 40 μM; ozanimod 2.5, 5, 10 μM; normal (non-cancerous) cells
Experimental: In still further experiments, the effects of SK1-I and ozanimod on normal (non-cancerous) primary human hepatocytes were investigated. Fresh human hepatocytes in a 12-well plate (HUF12) were obtained from Triangle Research Labs (Durham, N.C., USA; part of Lonza Group) and handled according to the supplier's protocol. The shipping medium was aspirated from each well and replaced with 1 ml per well of warm Hepatocyte Maintenance Medium. The plate was then placed in a 5% CO2 incubator at 37° C. and the hepatocytes were allowed to acclimate overnight. The Hepatocyte Maintenance Medium was replaced before treatment with drug or no-drug control, and the hepatocytes were treated with 0 μM (no-drug control), 10 μM, 20 μM, or 40 μM SK1-I or 0 μM, 2.5 μM, 5 μM, or 10 μM ozanimod for 24 hours under incubation. The cells were then harvested and analyzed using the GFP Certified® Apoptosis/Necrosis detection kit. The results are shown in FIGS. 19A-D for SK1-I and FIGS. 20A-D for ozanimod as follows.

[3] = tested on: human hepatocellular carcinoma cell lines Hep G2, Huh 7, and PLC-PRF5; assay: MTT cell viability assay (48 hours); format: cell-based; conditions: Hep G2, Huh 7, PLC-PRF5
Experimental: The following MTT assay protocol was followed. • Prepared stock solutions: 50 mM ozanimod, 50 mM ABC294640, 10 mM SK1-I in DMSO. • Plated 20000 cells in 160 μl medium per well in 96-well plates for each cell line and incubated at 37° C. overnight. • Prepared compound serial dilutions: for ozanimod and ABC294640: dilute stock 50 mM 1:50 in medium to 1000 μM; for SK1-I, dilute stock 10 mM 1:50 in medium to […], them make serial 1:1.8 fold serial dilution to the titration. For negative control, diluted DMSO 1:50 to medium. • Added 40 μl negative control and serially titrated compounds to 160 μl of cells for each cell line. Performed in triplicate for each cell line. • Incubated at 37° C. for 72 hours. • Performed assay using Vybrant MTT Cell Proliferation Assay kit (V-13154) (Molecular Probes) from Thermo Fisher Scientific (Waltham, Mass. USA).
48-hour treatment MTT assays were also performed as follows.

Row | SMILES | induction of apoptosis in Huh7 cells (Huh7 cells) | induction of apoptosis in PLC-PRF5 cells (PLC-PRF5 cells) | induction of apoptosis in Hep 3B cells (Hep 3B cells) | induction of apoptosis in Hep G2 cells (Hep G2 cells) | induction of apoptosis in Jurkat cells [1] | induction of apoptosis of primary human hepatocytes [2] | killing of hepatocellular carcinoma cells (MTT), comparison with PF-543 [3]
1 | O=C(NCc1ccncc1)C12CC3C[C@H](C1)CC(c1ccc(Cl)cc1)(C3)C2 [ABC294640, (7S)-3-(4-chlorophenyl)-N-(pyridin-4-ylmethyl)adamantane-1-carboxamide] | failed to induce apoptosis | did not substantially induce apoptosis | did not substantially induce apoptosis | failed to induce apoptosis |  |  | 
2 | CC(C)Oc1ccc(-c2nc(-c3cccc4c3CC[C@@H]4NCCO)no2)cc1C#N [Ozanimod, 5-[3-[(1S)-1-(2-hydroxyethylamino)-2,3-dihydro-1H-inden-4-yl]-1,2,4-oxadiazol-5-yl]-2-propan-2-yloxybenzonitrile] | strongly induced apoptosis | strongly induced apoptosis | strongly induced apoptosis | strongly induced apoptosis | strongly induced apoptosis | did not induce apoptosis | 
3 | CCCCCc1ccc(/C=C/[C@H](O)[C@@H](CO)NC)cc1 [SK1-I, (E,2R,3S)-2-(methylamino)-5-(4-pentylphenyl)pent-4-ene-1,3-diol] | strongly induced apoptosis | strongly induced apoptosis | strongly induced apoptosis | strongly induced apoptosis | strongly induced apoptosis | did not induce apoptosis | more effective at killing hepatocellular carcinoma cells than PF-543

— patent US10646459B2, “Sphingosine pathway modulating compounds for the treatment of cancers” (Enzo Biochem, Inc., priority 2017, dated 2020)
